Values belong to the molecule of their own block, whether it stands above or below them.
How the values were obtained:
[1] = Stability in aqueous solution by analytical RP-HPLC; assay type: physicochemical
Method: The stability of the compounds in aqueous solution was monitored over several hours using analytical RP-HPLC. […] Thus, the hydrolysis can be clearly attributed to the maleimide moiety.
(§1) RP-HPLC stability and binding studies
(§2) To determine the stability, especially of the maleimide-function, 0.5 mM solutions of the complexes were prepared in triple distilled water and measured repeatedly over several hours. For determination of the binding rate towards human serum albumin (HSA), freshly prepared 1 mM aqueous solutions of a compound and HSA were mixed 1:1 and also measured repeatedly over several hours. All studies were carried out using a reversed-phase Waters XBridge C18 column on a Dionex Summit System. Milli-Q water, containing 0.1% formic acid, and methanol were used as eluents and a standard gradient from 5–95% methanol in 20 minutes was chosen. The autosampler, where the samples were incubated, was temperature controlled at 20°C and the column at 25°C. The loss of the complexes was monitored via UV-VIS detector at 225 nm and evaluated by the decrease of the compound […]
(§3) For sample preparation compounds 7– 14 were incubated separately in FCS. […] The samples were then stored in the autosampler at 37°C for 21 h and analyzed

[2] = target: T1, human serum albumin (HSA) (Homo sapiens, UniProt P02768); assay: Albumin-binding rate by RP-HPLC (decrease of unbound drug peak area); settings: 1 eq. of HSA used
T1 construct: purchased Sigma Aldrich
T1 sequence (P02768 25-609): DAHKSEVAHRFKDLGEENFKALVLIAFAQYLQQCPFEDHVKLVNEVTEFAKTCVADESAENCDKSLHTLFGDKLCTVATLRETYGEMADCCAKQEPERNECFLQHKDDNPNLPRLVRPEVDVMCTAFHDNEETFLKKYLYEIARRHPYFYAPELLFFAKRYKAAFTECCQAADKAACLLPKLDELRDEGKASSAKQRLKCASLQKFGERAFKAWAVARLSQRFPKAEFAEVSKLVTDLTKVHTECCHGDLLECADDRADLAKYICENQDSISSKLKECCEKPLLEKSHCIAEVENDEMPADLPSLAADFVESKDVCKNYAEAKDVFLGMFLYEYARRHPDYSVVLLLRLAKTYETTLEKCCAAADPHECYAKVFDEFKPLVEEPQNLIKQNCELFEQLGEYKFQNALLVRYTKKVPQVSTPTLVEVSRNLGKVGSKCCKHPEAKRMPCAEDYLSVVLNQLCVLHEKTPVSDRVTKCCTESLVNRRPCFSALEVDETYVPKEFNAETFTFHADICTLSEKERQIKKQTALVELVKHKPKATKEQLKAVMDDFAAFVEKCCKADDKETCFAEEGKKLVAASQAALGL
Method: Next, the binding of the maleimide-functionalized complexes to the thiol group of human serum albumin (HSA) was investigated. Therefore, compounds 7–8 and 11–12 were incubated with HSA and the decrease of the peak area of the unbound drug was monitored (Fig. 2B, Table S19 ^†).
as §1, §2, §3

[3] = target: T2, albumin fraction of fetal calf serum (Bos taurus, UniProt P02769); assay: Binding studies in fetal calf serum by SEC-ICP-MS; assay type: in vitro ADME; settings: 37 °C
T2 construct: from tissue; host or cells: fetal calf serum (whole serum)
T2 sequence (P02769 25-607): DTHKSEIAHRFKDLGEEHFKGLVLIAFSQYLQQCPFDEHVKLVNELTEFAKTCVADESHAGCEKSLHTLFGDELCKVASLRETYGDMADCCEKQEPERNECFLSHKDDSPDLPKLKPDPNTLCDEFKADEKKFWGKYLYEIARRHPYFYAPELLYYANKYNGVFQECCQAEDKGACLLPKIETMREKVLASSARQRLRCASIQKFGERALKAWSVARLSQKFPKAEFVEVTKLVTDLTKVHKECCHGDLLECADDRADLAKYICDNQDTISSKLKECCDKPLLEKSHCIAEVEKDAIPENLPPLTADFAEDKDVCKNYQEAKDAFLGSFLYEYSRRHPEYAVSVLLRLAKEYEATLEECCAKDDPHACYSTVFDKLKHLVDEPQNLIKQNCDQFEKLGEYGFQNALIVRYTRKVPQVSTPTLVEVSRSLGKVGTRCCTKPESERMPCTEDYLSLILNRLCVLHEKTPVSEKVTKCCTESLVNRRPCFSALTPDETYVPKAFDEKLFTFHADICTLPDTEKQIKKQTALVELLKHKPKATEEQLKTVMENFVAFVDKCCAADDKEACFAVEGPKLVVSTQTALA
Method: To ascertain the actual binding target, the binding rate and the stability of the formed species under biological conditions, the compounds were incubated with fetal calf serum at 37 °C and sulfur- and platinum-containing (macro)molecules were measured with size exclusion chromatography inductively coupled plasma mass spectrometry (SEC-ICP-MS) over 21 h. Already at the first scan (∼5–10 min after incubation) ∼50% of the maleimide-containing compounds 7–8 and 11–12 were bound to the albumin fraction at 7.6 min (see Table S11 ^† for the corresponding size ladder). At the next time point after 140 min, in all cases, >80% of the drug was bound to albumin. […] Thus, the fast as well as specific binding to serum albumin was verified. […]
To determine the stability, especially of the maleimide-function, 0.5 mM solutions of the complexes were prepared in triple distilled water and measured repeatedly over several hours. For determination of the binding rate towards human serum albumin (HSA), freshly prepared 1 mM aqueous solutions of a compound and HSA were mixed 1:1 and also measured repeatedly over several hours. […] The loss of the complexes was monitored via UV-VIS detector at 225 nm and evaluated by the decrease of the compound […]
For sample preparation compounds 7– 14 were incubated separately in FCS. […] The samples were then stored in the autosampler at 37°C for 21 h and analyzed […]

[4] = Reduction with ascorbic acid monitored by RP-HPLC and 1H-NMR; assay type: physicochemical; settings: 1 mM complex, 10 equivalents ascorbic acid, phosphate buffer pH = 7.4
Method: As one explanation of the observed differences between the compounds might be altered reducibility, we investigated the reduction rate in the presence of ascorbic acid in phosphate-buffered solution at pH = 7.4 using NMR spectroscopy and HPLC measurements. To reduce the number of additional signals from hydrolyzed maleimide species in the spectra, only the succinimide-functionalized compounds 9–10 and 13–14 were evaluated in these experiments (Fig. 7 and S6 ^†). For both NMR and HPLC measurements, the same complex concentrations (1 mM) and 10 equivalents ascorbic acid were used. […] Overall, there is a strong correlation between the reduction data and the in vivo activity. As such, the fast reduction of the cisplatin derivatives correlates with the low in vivo activity of 8 and relatively low plasma levels after 24 h. […]
1 mM solutions of the succinimide derivatives 9– 10 and 13–14 in 100 mM phosphate buffer (pH=7.4) were freshly prepared, mixed with 10 mM solutions of ascorbic acid in 100 mM phosphate buffer (pH=7.4) and measured by RP-HPLC every hour for up to 24 h. […] The reduction of the compound was monitored via UV-VIS detector at 225 nm and evaluated by the decrease of the initial compound peak area. […]

[5] = Serum platinum levels 24 h after single treatment (SEC-ICP-MS and FI-ICP-MS); assay type: in vivo, BALB/c mice
Description: It is well accepted that albumin targeting distinctly impacts on the plasma half-life time as well as tissue distribution.[36] Especially, the enhanced accumulation due to the EPR effect makes this form of tumor-targeting very interesting for the development of novel cancer therapeutics.[13] As our novel compounds have a double prodrug nature (albumin-binding and the need of activation by reduction), we were interested in the drug tissue distribution after treatment. To this end, male CT-26-bearing BALB/c mice were treated once with our compounds followed by sample collection 24 h later. […] In accordance to many other non-targeted drugs,[37]–[40] for both platinum(II) drugs the intratumoral drug levels were distinctly lower than in the liver and kidney (which usually have very high drug levels due to their important function in metabolism and excretion).
Mice were treated once i.v. with 9 mg kg^–1 oxaliplatin and the equimolar concentrations in the case of 11 and 12 as well as 3 mg kg^–1 cisplatin and an equimolar dose in the case of 8. After 24 h, animals were anesthetized, sacrificed by heart puncture and tumor, liver, kidney tissue as well as serum were collected. Each experimental group contained four animals. (A) Organ platinum-distribution measured by ICP-MS. Data are expressed as mean ± standard deviation. (B) Platinum-SEC-ICP-MS measurements of serum samples (C) serum platinum levels measured by FI-ICP-MS. Data are expressed as mean ± standard deviation.
Table S10 : Column recovery.
Drug Conc. (µM) SD Column SD
A protein/amino acid mix was prepared to assess the separation performance of the applied SEC-HPLC setup. The mixture contained HSA, myoglobin, GSSG, and methionine. It has to be mentioned that HSA is forming dimers over time. However, the separation of the monomer and the dimer of HSA cannot be resolved with this chromatographic column.
Table S11 : Resulting size ladder.
SEC-ICP-MS measurements of in vivo serum samples
The ICP-QMS iCAP Thermo Scientific (Bremen, Germany) was used. Oxygen (purity 4.5, Linde Gas GmbH, Vienna, Austria) was used as reaction gas. The ICP-MS operation parameters are […]
Table S12 : ICP-MS operation parameters.
Nebulizer gas flow: 1.01 L/min
Aux. gas flow: 0.80 L/min
Plasma gas flow: 14 L/min
Reaction gas (oxygen) flow: 0.370 mL/min
As HPLC system a Thermo Scientific Transcend HPLC system (San Jose, CA, USA) was coupled to the ICP-QMS iCAP Thermo Scientific. Qtegra Intelligent Scientific Data Solution (version 2.4.1800.33) was employed for the data treatment. HPLC chromatographic conditions are […]
Table S13 : Chromatographic conditions.
HPLC column: BioBasic SEC-60 A, 4.6x250 mm, 5µm.
Eluent: 50 mM CH3COONH4, pH = 6.0.
Column Temperature: Room temperature
Autosampler Temperature: 37°C […]

CT-26 tumors = assay: Histological evaluation (H/E) of apoptotic and mitotic cell fractions in CT-26 tumors; assay type: in vivo, BALB/c mice; settings: tumors of male mice, day 12, H/E stain, counting
Method: In order to better understand the observed differences in the activity of our compound panel, in a second experiment male CT-26-bearing animals were sacrificed on day 12 (24 h after the last treatment) and paraffin-embedded tumors were evaluated by H/E stain. […] In addition, as depicted in Fig. 5, the tumors of mice treated with 12 were clearly smaller than the ones of the other treatment groups. […] Furthermore, the histological evaluation of tumor material was only possible for 3 animals because the fourth mouse already experienced a complete remission at time of section (which means that the best responding animal was not available for evaluation). […]
mice was performed only with the endpoint overall survival. For cisplatin and 8, the […]
was performed. […]
experimental group contained four animals). Tumor volumes were calculated as described in the experimental part. […]
Figure S5: Apoptosis and mitosis levels in tumors after the treatment with compound 8, 11 and 12 in comparison to cis- and oxaliplatin: CT-26 cells were injected subcutaneously into the right flank of male BALB/c mice. […] The fractions of apoptotic and mitotic cells were evaluated by counting (4 pictures per sample, at least 300 cells per picture were counted). […]
The statistical significance was calculated by One-Way Anova and is indicated with asterisks (* P < 0.05; ** P < 0.01; *** P < 0.001).

[6] = test system: subcutaneous CT-26 tumors
Method: Mice were treated twice a week (Monday and Thursday) i.v. with concentrations equimolar to 9 mg kg^–1 oxaliplatin (each experimental group contained four animals). […] The experiment was performed twice with two different endpoints: overall survival vs. tissue collection 12 days after the first treatment. […] Data are means ± SEM.
CT-26 cells (5x105 in serum-free medium) were injected subcutaneously into the right flank
of Balb/c mice (gender is indicated in the respective figure). Animals were treated with the
indicated oxaliplatin-releasing drugs at concentrations equimolar to 9 mg/kg oxaliplatin (i.v.;
12 was dissolved in 0.9% NaCl solution, 11 in 10% propylene glycol/0.9% NaCl, and
oxaliplatin in 5% glucose solution according to the clinical protocol) twice a week (Mondays
and Thursdays). In case of cisplatin-releasing prodrugs, a dose equimolar to 3 mg/kg cisplatin
was applied twice a week. For all experiments four animals per treatment group were used.
Animals were controlled for distress development every day and tumor size was assessed
regularly by caliper measurement. Tumor volume was calculated using the formula: (length ×
width2). The experiments with oxaliplatin, 11 and 12 in male mice were performed twice
with two different endpoints: 1) overall survival and 2) collection of organ and tumor
In the second experiments, tumors were
formalin-fixed and paraffin-embedded.
Results were analyzed and illustrated and statistical analyses performed (as indicated) with
GraphPad Prism (GraphPad Software version 5,San Diego, CA).

[7] = female BALB/c mice, 9 mg kg^–1 i.v. twice a week

- hydrolysis in aqueous solution ([1]; aqueous solution, 20°C): less than 1 % h^–1
- Albumin-binding half-life λ1/2 [2]: 5.1 h
- drug bound to the albumin fraction ([3]; 100 µM, first scan (∼5–10 min after incubation)): ~50%
SMILES: C[O][Pt]([NH2])([NH2])([Cl])([Cl])[O]C(=O)NCCN1C(=O)C=CC1=O [Compound 7, (OC-6-44)-Diamminedichloridomethoxido[2-(2,5-dioxo-2,5-dihydro-1H-pyrrol-1-yl)ethylcarbamato]platinum(IV)]

- changes in aqueous solution ([1]; over a period of 24 hours): no changes
- protein binding ability ([3]; during 21 h): negligible protein binding ability
- reduction by ascorbic acid, cisplatin-derived vs oxaliplatin-based [4]: reduced much faster
- stability towards reduction, acetato vs methoxido ligand [4]: more stable
SMILES: CC(=O)[O][Pt]([NH2])([NH2])([Cl])([Cl])[O]C(=O)NCCN1C(=O)CCC1=O [Compound 10]

SMILES: N.N.[Cl][Pt][Cl] [cisplatin]
- Pt conc. in serum ([5]; Mouse #1, serum 24 h after single i.v. treatment): 48 µg/L
- Pt conc. in serum ([5]; Mouse #2, serum 24 h after single i.v. treatment): 46 µg/L
- Pt conc. in serum ([5]; Mouse #3, serum 24 h after single i.v. treatment): 43 µg/L
- Pt conc. in serum ([5]; Mouse #4, serum 24 h after single i.v. treatment): 44 µg/L

SMILES: O=C1[O][Pt]2([NH][C@@H]3CCCC[C@H]3[NH]2)[O]C1=O [oxaliplatin]
- apoptotic cell fraction in tumors (CT-26 tumors): highest
- adverse effects [6, 7]: very strong adverse effects
- anticancer activity [6, 7]: widely ineffective
- onset of activity ([6]; male BALB/c mice, i.v. twice a week, equimolar to 9 mg kg^–1 oxaliplatin): 8 days
